Data from patent US6509355B1, “Treatment of disorders of the outer retina” (Alcon Laboratories, Inc., priority 1998, dated 2003).

What was measured:
[1] = target: NR1A/NR2B subtype of the polyamine binding site of the NMDA receptor (Homo sapiens, UniProt Q05586+Q13224); settings: cited from earlier work
[2] = system: photo-oxidative induced retinopathy; assay: Photo-oxidative induced retinopathy: 6-hour blue light exposure, ERG after 5-day recovery
Source text: Photic retinopathy results from excessive excitation of the retinal pigment epithelium and neuroretina by absorption of visible or near ultraviolet radiation. Lesion severity is dependent upon wavelength, irradiance, exposure duration, species, ocular pigmentation, and age. Damage may result from peroxidation of cellular membranes, inactivation of mitochondrial enzymes such as cytochrome oxidase, or increased intracellular calcium. Cellular damage resulting from photo-oxidative stress leads to cell death by apoptosis, (Shahinfar, S., Edward. D. P. and Tso, M. O. (1991), A pathologic study of photoreceptor cell death in retinal photic injury. Current Eye Research, 10:47-59: Abler, A. S., Chang, C. J., Fu, J. and Tso, M. O. (1994), Photic injury triggers apoptosis of photoreceptor cells. Investigative Ophthalmology & Visual Science, 35(Suppl):1517). Oxidative stress induced apoptosis has been implicated as a cause of many ocular pathologies, including, iatrogenic retinopathy, macular degeneration, retinitis pigmentosa and other forms of heredodegenerative disease, ischemic retinopathy, retinal tears, retinal detachment, glaucoma and retinal neovascularization (Chang, C. J., Lai, W. W., Edward, D. P. and Tso, M. O. (1995), Apoptotic photoreceptor cell death after traumatic retinal detachment in humans, Archives of Ophthalmology, 113:880-886: Portera-Cailliau, C., Sung, C. H., Nathans, J. and Adler, R. (1994), Apoptotic photoreceptor cell death in mouse models of retinitis pigmentosa, Proceedings of National Academy of Science (U.S.A.), 91:974-978; Buchi, E. R. (1992), Cell death in the rat retina after a pressure-induced ischaemia-reperfusion insult: an electron microscopic study. I. Ganglion cell layer and inner nuclear layer, Experimental Eye Research, 55:605-613; Quigley, H. A., Nickells. R. W., Kerrigan, L. A., Pease, M. E., Thibault, D. J. and Zack, D. J. (1995), Retinal ganglion cell death in experimental glaucoma and after axotomy occurs by apoptosis, Investigative Ophthalmology & Visual Science, 36:774-786). […] Alan R. Liss, Inc., New York; Collier, R., W. Waldron and Zigman, S. (1989), Temporal sequence of changes to the gray squirrel retina after near-UV exposure, Investigative Ophthalmology & Visual Science, 30:631-637), non-human primates (Tso, M. O. M. (1973), Photic maculopathy in rhesus monkey. A light and electron microscopic study. Investigative Ophthalmology & Visual Science, 12:17-34; Ham, W. T., Jr., Ruffolo, J. J., Jr., Mueller, H. A. and Guerry, D., III. (1980), The nature of retinal radiation damage: dependence on wavelength, power level and exposure time, Vision Research, 20:1105-1111; Sperling, H. G., Johnson, C. and Harwerth, R. S. (1980), Differential spectral photic damage to primate cones, Vision Research, 20:1117-1125: Sykes, S. M., Robison, W. G., Jr., Waxler, M. and Kuwabara, T. (1981), Damage to the monkey retina by broad spectrum fluorescent light, Investigative Ophthalmology & Visual Science, 20:425-434; Lawwill, T. (1982), Three major pathologic processes caused by light in the primate retina: A search for mechanisms, Transactions of the American Ophthalmology Society, 80:517-577), and man (Marshall, J. Hamilton, A. M. and Bird, A. C. (1975), Histopathology of ruby and argon laser lesions in monkey and human retina, British Journal of Ophthalmology, 59:610-630; Green, W. R. and Robertson, D. M. (1991), Pathologic findings of photic retinopathy in the human eye. American Journal of Ophthalmology, 112:520-27).

[3] = system: laser induced thermal burns to the retina; settings: cited from earlier work
[4] = system: NMDA receptor; assay: Binding affinity to the NMDA receptor; settings: order of magnitude only
[5] = system: retinal laser burn; assay: Retinal laser burn spread damage: argon laser, lesion area in outer nuclear layer after 48 hours; assay type: in vivo, Pigmented Long Evans rats
Source text: The eye is exposed to high-energy laser radiation during the performance of retinal photocoagulation therapy (grid, focal and […]) or during photodynamic therapy. This type of therapy is often employed during treatment of choroidal neovascularization, proliferative stages of diabetic retinopathy, retinopathy of prematurity, or to repair retinal holes or […]. Associated with this laser therapy is tissue destruction leading to vision deterioration. […] It is believed that this vision loss results directly from the expansion of the laser-induced lesion to surrounding normal neurosensory retina and RPE. Singlet oxygen and other reactive oxygen species as well as cytokines are generated in the area of the laser burn and thought to migrate laterally to cause collateral retinal damage. Retinal morphology changes in this area are similar to changes in our photo-oxidative retinopathy paradigm. […] Pigmented Long Evans rats were randomly assigned to control, vehicle or drug dosed groups. […] After a 48-hour recovery period, eyes were fixed, dehydrated, and embedded in plastic resin. Histological assessment of laser burns was performed by flatmounting the retina and sectioning the tissue in a plane tangential to the nerve fiber layer. Using this technique, the lesion area in the outer nuclear layer could be calculated using an image analysis system. […] The laser bum center was marked by; complete closure of all capillaries, arterioles and venuoles; perforation of Bruch's membrane; pyknosis and necrosis of all photoreceptor nuclei; and destruction of inner and outer segments. Spread of the lesion into peripheral retina consisted of shortening of outer segments, inner segment swelling, clumping of melanin granules in the RPE and choroid, and vacuolization of the RPE.

[6] = system: light induced functional or morphological changes; assay: Light damage paradigms (light induced damage paradigm); settings: in vivo
Experimental: Eliprodil was evaluated in our light induced damage paradigm, a model of retinal degenerative diseases such as retinitis pigmentosa and age-related macular degeneration.

[7] = system: mechanical stress induced ischemia reperfusion; settings: Arch Ophthal 1993; cited from earlier work

NR1A/NR2B subtype of the polyamine binding site of the NMDA receptor, sequence (Q13224 27-1484, other chains not shown): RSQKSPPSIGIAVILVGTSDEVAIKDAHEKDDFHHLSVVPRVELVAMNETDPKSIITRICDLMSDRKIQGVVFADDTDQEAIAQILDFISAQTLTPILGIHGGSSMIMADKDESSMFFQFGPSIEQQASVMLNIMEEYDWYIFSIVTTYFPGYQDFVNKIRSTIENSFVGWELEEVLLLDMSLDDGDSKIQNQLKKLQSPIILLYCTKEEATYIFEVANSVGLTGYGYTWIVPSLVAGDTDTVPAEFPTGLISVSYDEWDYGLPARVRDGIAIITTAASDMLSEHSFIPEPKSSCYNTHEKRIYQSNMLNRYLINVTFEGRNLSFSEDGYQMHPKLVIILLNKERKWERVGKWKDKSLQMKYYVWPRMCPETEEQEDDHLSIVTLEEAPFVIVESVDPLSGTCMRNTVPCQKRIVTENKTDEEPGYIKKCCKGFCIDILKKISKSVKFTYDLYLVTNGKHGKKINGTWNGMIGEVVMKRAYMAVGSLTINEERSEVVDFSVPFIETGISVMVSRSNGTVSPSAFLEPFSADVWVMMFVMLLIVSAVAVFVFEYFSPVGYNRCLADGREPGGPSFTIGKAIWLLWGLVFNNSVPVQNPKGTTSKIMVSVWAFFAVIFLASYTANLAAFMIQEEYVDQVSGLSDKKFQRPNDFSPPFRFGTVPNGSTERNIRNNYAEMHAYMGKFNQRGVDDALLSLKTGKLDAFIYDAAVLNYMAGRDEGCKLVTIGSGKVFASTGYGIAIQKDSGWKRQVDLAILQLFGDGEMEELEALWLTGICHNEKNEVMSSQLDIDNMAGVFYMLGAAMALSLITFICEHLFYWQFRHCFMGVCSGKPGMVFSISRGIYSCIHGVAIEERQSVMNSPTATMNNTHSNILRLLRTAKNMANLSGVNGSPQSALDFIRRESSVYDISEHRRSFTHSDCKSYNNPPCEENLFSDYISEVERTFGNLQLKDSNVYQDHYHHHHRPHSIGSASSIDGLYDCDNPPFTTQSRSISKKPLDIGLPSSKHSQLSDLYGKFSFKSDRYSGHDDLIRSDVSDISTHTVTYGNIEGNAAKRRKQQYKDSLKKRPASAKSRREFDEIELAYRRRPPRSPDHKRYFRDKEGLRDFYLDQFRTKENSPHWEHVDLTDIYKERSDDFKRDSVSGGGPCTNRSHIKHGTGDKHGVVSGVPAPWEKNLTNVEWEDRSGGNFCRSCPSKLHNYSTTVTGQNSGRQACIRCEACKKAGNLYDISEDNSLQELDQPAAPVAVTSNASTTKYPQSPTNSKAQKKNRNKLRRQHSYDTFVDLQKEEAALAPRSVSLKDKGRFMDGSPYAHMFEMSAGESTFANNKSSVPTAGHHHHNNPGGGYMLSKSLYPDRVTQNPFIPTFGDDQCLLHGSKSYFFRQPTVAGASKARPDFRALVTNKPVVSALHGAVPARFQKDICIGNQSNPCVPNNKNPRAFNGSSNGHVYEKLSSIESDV

Compound: C[C@@H]([C@@H](O)c1ccc(O)cc1)N1CCC(O)(c2ccccc2)CC1 [CP-101,606]
- subtype preference of NMDA receptor block [1]: preferentially block

Compound: C[C@]12N[C@H](Cc3ccccc31)c1ccccc12 [MK-801, reference compound]
- dose dependence of protection of outer and inner retina function ([2]; Experiment 1): dose-dependent protection
- protection of outer and inner retina function against light induced retinal degeneration ([2]; Experiment 1, 2 mg/kg IP, vs vehicle): No significant protection
- protection of outer and inner retina function against light induced retinal degeneration ([2]; Experiment 1, 10 mg/kg IP, vs vehicle): No significant protection
- ERG responses compared with control (normal) ([2]; Experiment 1, 20 mg/kg IP): not significantly different than control
- protection of outer and inner retina function against light induced retinal degeneration ([2]; Experiment 1, 20 mg/kg IP at 48, 24, 0 h before light, vs vehicle): significant protection
- maximum a-wave response amplitude ([2]; Experiment 1, 20 mg/kg IP, controls 734.05 μV): 537.93 μV
- maximum b-wave response amplitude ([2]; Experiment 1, 20 mg/kg IP, controls 1807 μV): 1449.77 μV
- rescue of RPE and photoreceptor cells (summary) ([2]; summary of Experiments 1 and 2): Complete protection
- prevention of photoreceptor loss ([3]; 3 and 20 days post laser exposure): did not significantly prevent
- preventing the spread of laser induced thermal burns to the retina ([3]; at 60 days): minimally effective

Compound: O[C@@H](CN1CCC(Cc2ccc(F)cc2)CC1)c1ccc(Cl)cc1 [R-eliprodil]
- potency relative to eliprodil (racemic) ([2]; rat, in vivo): two-fold less potent
- Maximum a-wave response, % of normal ([2]; rat, in vivo, ip, 20 mg/kg): 38%
- Maximum b-wave response, % of normal ([2]; rat, in vivo, ip, 20 mg/kg): 36%
- protection of outer and inner retina function against light induced retinal degeneration ([2]; rat, in vivo, ip, 20 mg/kg): No significant protection
- Response amplitudes, fold higher than vehicle dosed rats ([2]; rat, in vivo, ip, 40 mg/kg): about 2 fold
- maximum a-wave response amplitude ([2]; rat, in vivo, ip, 40 mg/kg): 397.25 μV
- maximum b-wave response amplitude ([2]; rat, in vivo, ip, 40 mg/kg): 812.87 μV
- protection of outer and inner retina function against light induced retinal degeneration ([2]; rat, in vivo, ip, 40 mg/kg): significant protection
- response amplitudes, % of normal ([2]; rat, in vivo, ip, 40 mg/kg): ~50%
- Maximum a- and b-wave responses, % of normal ([2]; rat, in vivo, ip, 80 mg/kg): approximately 40%
- protection of outer and inner retina function against light induced retinal degeneration ([2]; rat, in vivo, ip, 80 mg/kg): No significant retinal protection
- binding affinity to the NMDA receptor [4]: nanomolar
- lesion area smaller than in vehicle dosed rats ([5]; 20 mg/kg IP): 16%
- significance of lesion area difference from vehicle ([5]; 20 mg/kg IP): not significantly different
- Laser burn lesion area ([5]; 40 mg/kg IP): 36,016 μ^2
- lesion area smaller than in vehicle dosed rats ([5]; 40 mg/kg IP): 28%
- significance of lesion area difference from vehicle ([5]; 40 mg/kg IP): significantly diflerent
- reduction of collateral retinal damage around the laser burn (summary) [5]: significant reduction

Compound: O[C@H](CN1CCC(Cc2ccc(F)cc2)CC1)c1ccc(Cl)cc1 [S-eliprodil]
- potency rank as retinoprotective agent in the series ([2]; rat, in vivo): most potent
- potency relative to eliprodil (racemic) ([2]; rat, in vivo): two-fold more potent
- difference in ERG response amplitude compared to vehicle dosed rats ([2]; rat, in vivo, ip, 5 mg/kg): No significant difference
- Maximum a-wave response, % of normal ([2]; rat, in vivo, ip, 10 mg/kg): 64%
- Maximum b-wave response, % of normal ([2]; rat, in vivo, ip, 10 mg/kg): 76%
- protection of outer and inner retina function against light induced retinal degeneration ([2]; rat, in vivo, ip, 10 mg/kg): Significant protection
- Response amplitudes, fold higher than vehicle dosed rats ([2]; rat, in vivo, ip, 20 mg/kg): about 2 fold
- maximum a-wave response amplitude ([2]; rat, in vivo, ip, 20 mg/kg): 418.04 μV
- maximum b-wave response amplitude ([2]; rat, in vivo, ip, 20 mg/kg): 1015.95 μV
- protection of outer and inner retina function against light induced retinal degeneration ([2]; rat, in vivo, ip, 20 mg/kg): Significant protection
- response amplitudes, % of normal ([2]; rat, in vivo, ip, 20 mg/kg): approximately 62%
- binding affinity to the NMDA receptor [4]: millimolar
- Laser burn lesion area ([5]; 20 mg/kg IP): 43,098.5 μ^2
- lesion area smaller than in vehicle dosed rats ([5]; 20 mg/kg IP): 15%
- significance of lesion area difference from vehicle ([5]; 20 mg/kg IP): not significantly different
- reduction of collateral retinal damage around the laser burn (summary) [5]: devoid of significant efficacy

Compound: Cc1c(C)c2c(c(C)c1O)CC[C@@](C)(CCC[C@H](C)CCC[C@H](C)CCCC(C)C)O2 [alpha-tocopherol]
- preventing light induced functional or morphological changes [6]: ineffective

Compound: N=C(N)NC(=O)c1nc(Cl)c(N)nc1N [amiloride]
- preventing light induced functional or morphological changes [6]: no effect

Compound: COC(=O)C1=C(C)NC(C)=C(C(=O)O[C@H]2CCN(Cc3ccccc3)C2)[C@H]1c1cccc([N+](=O)[O-])c1 [barnidipine]
- preventing light induced functional or morphological changes [6]: no effect

Compound: COc1ccc2c(c1)[C@]13CCCC[C@@H]1[C@H](C2)N(C)CC3 [dextromethorphan]
- protection of inner retina function and RPE function [7]: moderately protected
- protective effect for outer retina function [7]: no significant protective effect

Compound: Fc1ccc(C(c2ccc(F)cc2)N2CCN(C/C=C/c3ccccc3)CC2)cc1 [flunarizine]
- preventing light induced functional or morphological changes [6]: moderately effective

Compound: CC(C(O)c1ccc(O)cc1)N1CCC(Cc2ccccc2)CC1 (centres unmarked) [ifenprodil]
- subtype preference of NMDA receptor block [1]: preferentially block

Compound: Cc1cccc(C)c1NC(=O)CN1CCN(CCCC(c2ccc(F)cc2)c2ccc(F)cc2)CC1 [lidoflazine]
- preventing light induced functional or morphological changes [6]: no effect

Compound: CC12CC3CC(C)(C1)CC(N)(C3)C2 [memantine, reference compound]
- dose dependence of protection of outer and inner retina function ([2]; rat, in vivo): dose-dependent protection
- protection of outer and inner retina function against light induced retinal degeneration ([2]; rat, in vivo, ip, 2 mg/kg): no significant protection
- ERG responses compared with control (normal) ([2]; rat, in vivo, ip, 20 mg/kg): significantly lower than normal
- protection of outer and inner retina function against light induced retinal degeneration ([2]; rat, in vivo, ip, 20 mg/kg): significant protection

Compound: COCCOC(=O)C1=C(C)NC(C)=C(C(=O)OC(C)C)C1c1cccc([N+](=O)[O-])c1 (centres unmarked) [nimodipine]
- preventing light induced functional or morphological changes [6]: no effect

Compound: prenylamine lactate
- preventing light induced functional or morphological changes [6]: no effect
